Tests used:
[1] = biological target: Nicotinamide phosphoribosyltransferase (Homo sapiens, UniProt P43490)
Description: Inhibition of NAMPT (unknown origin) using NAM as substrate preincubated for 5 mins followed by substrate addition and measured after 15 mins by fluorescence based microtiter plate reader analysis

A549 [2] = assay: cells; details: Homo sapiens, A549, 72 h
Description: Antiproliferative activity against human A549 cells assessed as inhibition of cell growth incubated for 72 hrs by CCK8 assay

MIA PaCa-2 [3] = assay: cells; details: Homo sapiens, MIA PaCa-2, 72 h
Description: Antiproliferative activity against human MIA PaCa-2 cells assessed as inhibition of cell growth incubated for 72 hrs by CCK8 assay

HCT-116 [4] = assay: cells; details: Homo sapiens, HCT-116, 72 h
Description: Antiproliferative activity against human HCT-116 cells assessed as inhibition of cell growth incubated for 72 hrs by CCK8 assay

MIA PaCa-2 [5] = assay: Synergistic antiproliferative activity against human MIA PaCa-2 cells harboring KRAS G12C mutant assessed as inhibition of cell growth by measuring combination index at 1:2 molar ratio of test compound:1-(4-(piperidin-1-ylsulfonyl)phenyl)-3-(pyridin-3-ylmethyl)thiourea by chou-talalay method; format: functional
MIA PaCa-2 [6] = assay: Antitumor activity against human MIA PaCa-2 cells xenografted in female BALB/C nude mouse assessed as tumor growth inhibition at 20 mg/kg, ip administered once daily for 21 days relative to control; details: MIA PaCa-2, 504 h, read-out: TGI
MIA PaCa-2 [7] = assay: Antiproliferative activity against human MIA PaCa-2 cells assessed as inhibition of cell growth incubated for 72 hrs in presence of 1-(4-(piperidin-1-ylsulfonyl)phenyl)-3-(pyridin-3-ylmethyl)thiourea by CCK8 assay; format: functional, cell-based; details: MIA PaCa-2, 72 h
[8] = biological target: Retinal rod rhodopsin-sensitive cGMP 3',5'-cyclic phosphodiesterase subunit delta (Homo sapiens, UniProt O43924)
Retinal rod rhodopsin-sensitive cGMP 3',5'-cyclic phosphodiesterase subunit delta, sequence (O43924 whole entry): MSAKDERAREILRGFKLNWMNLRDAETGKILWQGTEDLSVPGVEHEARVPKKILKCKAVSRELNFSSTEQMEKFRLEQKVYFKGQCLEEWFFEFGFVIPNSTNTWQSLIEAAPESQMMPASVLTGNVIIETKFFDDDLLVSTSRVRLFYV

MIA PaCa-2 [9] = assay: Antitumor activity against human MIA PaCa-2 cells xenografted in female BALB/C nude mouse assessed as tumor growth inhibition at 20 mg/kg, ip co-administered with 1-(4-(piperidin-1-ylsulfonyl)phenyl)-3-(pyridin-3-ylmethyl)thiourea once daily for 21 days relative to control; format: functional; details: MIA PaCa-2, 504 h, time 21 day, read-out: TGI
HCT-116 [10] = assay: Antiproliferative activity against human HCT-116 cells assessed as inhibition of cell growth incubated for 72 hrs in presence of 1-(4-(piperidin-1-ylsulfonyl)phenyl)-3-(pyridin-3-ylmethyl)thiourea by CCK8 assay; format: functional, cell-based; details: HCT-116, 72 h
A549 [11] = assay: Antiproliferative activity against human A549 cells assessed as inhibition of cell growth incubated for 72 hrs in presence of 1-(4-(piperidin-1-ylsulfonyl)phenyl)-3-(pyridin-3-ylmethyl)thiourea by CCK8 assay; format: functional, cell-based; details: A549, 72 h

Nicotinamide phosphoribosyltransferase, sequence (P43490 whole entry): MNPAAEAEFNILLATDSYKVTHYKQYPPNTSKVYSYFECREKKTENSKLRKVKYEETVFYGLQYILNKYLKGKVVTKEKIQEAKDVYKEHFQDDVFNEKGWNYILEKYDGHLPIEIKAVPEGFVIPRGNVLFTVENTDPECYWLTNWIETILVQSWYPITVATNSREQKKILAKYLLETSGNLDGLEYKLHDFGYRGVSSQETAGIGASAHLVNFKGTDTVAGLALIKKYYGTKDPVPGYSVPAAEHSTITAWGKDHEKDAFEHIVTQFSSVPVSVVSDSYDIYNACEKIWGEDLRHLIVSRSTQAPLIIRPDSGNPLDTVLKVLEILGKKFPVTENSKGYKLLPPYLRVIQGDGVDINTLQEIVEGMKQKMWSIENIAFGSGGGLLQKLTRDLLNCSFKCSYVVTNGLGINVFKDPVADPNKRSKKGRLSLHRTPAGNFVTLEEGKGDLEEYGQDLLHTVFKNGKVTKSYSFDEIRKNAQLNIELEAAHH

Row | SMILES | IC50 [1] | IC50 (A549 [2]) | IC50 (MIA PaCa-2 [3]) | IC50 (HCT-116 [4]) | CI (MIA PaCa-2 [5]) | inhibition in vivo at 20 mg/kg (MIA PaCa-2 [6]) | IC50 (MIA PaCa-2 [7]) | Kd [8] | inhibition in vivo at 20 mg/kg (MIA PaCa-2 [9]) | IC50 (HCT-116 [10]) | IC50 (A549 [11])
1 | O=C(/C=C/c1cccnc1)Nc1ccc(S(=O)(=O)N(Cc2ccc(Cl)cc2)C2CCCC2)cc1 | 266 nM | 14 nM | 36 nM | 711 nM | – | – | – | – | – | – | –
2 | Cc1ccc(-n2nc3c(=O)n(CCC(=O)N4CCC(N5C(=O)c6ccccc6NC5c5ccccc5F)CC4)nc(C)c3c2C)cc1 (centres undefined) | – | > 20000 nM | > 20000 nM | 6870 nM | <1 | 26.8% | 130 nM | 5.16 nM | 44.1% | 233 nM | 39 nM
